Assay results published in PMC10287695, “Non-covalent inhibitors of thioredoxin glutathione reductase with schistosomicidal activity in vivo” (Nature Communications, 2023).
Several values for one entry are separate records, joined by “and”; a condition that tells them apart may be missing. Equal values may be shown once. Read-outs that look alike come from different tables or passages of the source.

Biological target: T1, TGR (Schistosoma mansoni, UniProt Q962Y6)
T1 construct: made in house
T1 sequence (Q962Y6 1-598): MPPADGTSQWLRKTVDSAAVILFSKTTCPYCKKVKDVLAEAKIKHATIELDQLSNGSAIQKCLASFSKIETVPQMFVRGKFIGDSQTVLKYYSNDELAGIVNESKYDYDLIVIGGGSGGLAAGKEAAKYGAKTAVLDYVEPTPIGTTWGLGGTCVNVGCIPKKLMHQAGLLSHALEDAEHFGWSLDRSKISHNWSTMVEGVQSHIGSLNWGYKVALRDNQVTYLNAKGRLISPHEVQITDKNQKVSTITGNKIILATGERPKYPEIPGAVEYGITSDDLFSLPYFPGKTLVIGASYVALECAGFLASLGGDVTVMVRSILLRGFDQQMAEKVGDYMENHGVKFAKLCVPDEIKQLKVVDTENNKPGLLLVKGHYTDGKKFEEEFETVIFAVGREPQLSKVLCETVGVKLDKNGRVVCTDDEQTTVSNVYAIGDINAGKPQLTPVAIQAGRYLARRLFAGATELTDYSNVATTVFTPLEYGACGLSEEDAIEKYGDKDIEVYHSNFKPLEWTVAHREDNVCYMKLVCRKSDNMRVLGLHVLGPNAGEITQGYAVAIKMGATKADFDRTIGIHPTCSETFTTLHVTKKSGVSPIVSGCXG
Type: biochemical, S. mansoni
Conditions: for mode of inhibition (NADPH varied): steady state
Protocol: Master mixes with varying concentrations of NADPH were made, each with 2 nM TGR in reaction buffer. Inhibitor (2 µl) was added to a 96 well microplate in triplicate for each NADPH and inhibitor concentration, and 192 µl of the master buffer was added to each well. The reaction incubated for 15 min and 6 µl of 50 mM DTNB was added to each well. The kinetic rate was measured at A412 for 5 min.

[1] = inhibitor 0.6 µM, NADPH 10 (unit not given)
[2] = inhibitor 0.6 µM, NADPH 30 (unit not given)
[3] = inhibitor 0.6 µM, NADPH 100 (unit not given)
[4] = inhibitor 0.6 µM, NADPH 300 (unit not given)
[5] = inhibitor 10 µM, NADPH 10 (unit not given)
[6] = inhibitor 10 µM, NADPH 30 (unit not given)
[7] = inhibitor 10 µM, NADPH 100 (unit not given)
[8] = inhibitor 10 µM, NADPH 300 (unit not given)
[9] = inhibitor 30 µM, NADPH 10 (unit not given)
[10] = inhibitor 30 µM, NADPH 30 (unit not given)
[11] = inhibitor 30 µM, NADPH 100 (unit not given)
[12] = inhibitor 30 µM, NADPH 300 (unit not given)
[13] = inhibitor 3 µM, NADPH 3 (unit not given)
[14] = inhibitor 3 µM, NADPH 10 (unit not given)
[15] = inhibitor 3 µM, NADPH 30 (unit not given)
[16] = inhibitor 3 µM, NADPH 100 (unit not given)
[17] = inhibitor 3 µM, NADPH 300 (unit not given)
[18] = inhibitor 10 µM, NADPH 3 (unit not given)
[19] = inhibitor 30 µM, NADPH 3 (unit not given)
[20] = inhibitor 1 µM, NADPH 5 (unit not given)
[21] = inhibitor 1 µM, NADPH 10 (unit not given)
[22] = inhibitor 1 µM, NADPH 30 (unit not given)
[23] = inhibitor 1 µM, NADPH 100 (unit not given)
[24] = inhibitor 3 µM, NADPH 5 (unit not given)

SMILES	Vmax (10 µM fast inhibitor)	Vmax (30 µM fast inhibitor)	Rate, single replicate [5]	avg rate [5]	Rate, single replicate [6]	avg rate [6]	Rate, single replicate [7]	avg rate [7]	Rate, single replicate [8]	avg rate [8]	Rate, single replicate [9]	avg rate [9]	Rate, single replicate [10]	avg rate [10]	Rate, single replicate [11]	avg rate [11]	Rate, single replicate [12]	avg rate [12]	mode of inhibition (NADPH varied)	Rate, single replicate [14]	further results
C[C@@H]1[C@H]2C[C@@H](C[C@H]1NCc1nc3ccccc3n1C1CCCCCC1)C2(C)C [Compound 8]	0.0091 ± 0.0007 ΔA412/min	0.0067 ± 7E-5 ΔA412/min	0.007669 and 0.006838 and 0.009131	0.007879	0.005991 and 0.006991 and 0.01256	0.008514	0.006895 and 0.007479 and 0.009519	0.007964	0.01018 and 0.009394 and 0.01058	0.01005	0.00609 and 0.005955 and 0.006026	0.006024	0.006205 and 0.005206 and 0.007748	0.006386	0.006944 and 0.006279 and 0.006539	0.006587	0.005974 and 0.006732 and 0.007751	0.006819	uncompetitive inhibition		Vmax (0.6 µM fast inhibitor): 0.05 ± 0.0017 ΔA412/min; Rate, single replicate [1]: 0.02362 and 0.02203 and 0.02232; avg rate [1]: 0.02266; Rate, single replicate [2]: 0.03949 and 0.03661 and 0.03778; avg rate [2]: 0.03796; Rate, single replicate [3]: 0.04159 and 0.0438 and 0.04407; avg rate [3]: 0.04315; Rate, single replicate [4]: 0.04835 and 0.04882 and 0.0495; avg rate [4]: 0.04889; mode of inhibition (NADPH varied) (listed as 8 (9VP173)): uncompetitive behavior
Cc1oc(C2CCCCC2)nc1C(=O)N[C@@H]1C[C@@H]2C[C@H]([C@H]1C)C2(C)C [Compound 7]	0.023 ± 0.0006 ΔA412/min	0.005 ± 0.0004 ΔA412/min	0.014 and 0.01379 and 0.01325	0.01368	0.01713 and 0.02008	0.01811	0.02098 and 0.02124 and 0.02207	0.02143	0.009276 and 0.01989 and 0.01984	0.01634	0.004132 and 0.003931 and 0.003739	0.003934	0.004888 and 0.004427 and 0.004285	0.004533	0.005567 and 0.005953 and 0.005104	0.005541	0.006433 and 0.00613 and 0.007161	0.006575	uncompetitive inhibition	0.01865 and 0.01872 and 0.01883	Vmax (3 µM fast inhibitor): 0.037 ± 0.0031 ΔA412/min; Rate, single replicate [13]: 0.004865 and 0.004625 and 0.005262; avg rate [13]: 0.004917; avg rate [14]: 0.01873; Rate, single replicate [15]: 0.02703 and 0.02752 and 0.02778; avg rate [15]: 0.02744; Rate, single replicate [16]: 0.03299 and 0.03283 and 0.0326; avg rate [16]: 0.03281; Rate, single replicate [17]: 0.02949 and 0.03026 and 0.03016; avg rate [17]: 0.02997; Rate, single replicate [18]: 0.006166 and 0.006168 and 0.006055; avg rate [18]: 0.00613; Rate, single replicate [19]: 0.002823 and 0.003641; avg rate [19]: 0.003232; mode of inhibition (NADPH varied) (listed as 7 (9VP108)): uncompetitive behavior
CC1C(NCc2cn(C3OCC(O)C(O)C3O)c3ccccc23)CC2CC1C2(C)C (stereo not shown) [Compound 9]	0.012 ± 0.00012 ΔA412/min	0.0056 ± 0.00043 ΔA412/min	0.001061 and 0.0007127 and 0.0008019		0.0004565 and 0.000593		0.0001918 and 0.000912 and 1.594e-5												noncompetitive inhibition	0.003704 and 0.003359 and 0.003645	Vmax (60 µM fast inhibitor): 0.0033 ± 0.00024 ΔA412/min; Rate, single replicate [20]: 0.004595 and 0.004128 and 0.004463; avg rate [20]: 0.004395; Rate, single replicate [21]: 0.005356 and 0.005454 and 0.005186; avg rate [21]: 0.005332; Rate, single replicate [22]: 0.00852 and 0.006935; avg rate [22]: 0.007727; Rate, single replicate [23]: 0.008379 and 0.007686 and 0.007654; avg rate [23]: 0.007906; Rate, single replicate [24]: 0.002898 and 0.002979 and 0.003645; avg rate [24]: 0.003174; avg rate [14]: 0.003569; Rate, single replicate [15]: 0.005584; avg rate [15]: 0.02094; Rate, single replicate [16]: 0.004192 and 0.005 and 0.004489; avg rate [16]: 0.00456; Rate, single replicate (inhibitor 10 µM, NADPH 5 (unit not given)): 0.00023 and 0.001097 and 0.0005855
